Experimental data: patent US6242494A, “Substituted β-amino acid inhibitors of methionine aminopeptidase-2” (Abbott Laboratories, priority 1999, dated 2001)
Where a name gives a salt, the structure may show the parent alone.

Biological target: T1, methionine aminopeptidase-2 (MetAP2) (Homo sapiens, UniProt P50579)
T1 construct: made in house; host or cells: insect cells, baculovirus system (secreted, purified from culture supernatant)
Experiment: Inhibition of MetAP2 enzyme activity (96-well, Met-Ala-Ser substrate, L-amino acid oxidase/peroxidase/ortho-dianisidine, 450 nm)
Format: biochemical
Details: pH 7.4, Met-Ala-Ser substrate, 20 minutes

[1] = IC50, recombinant MetAP2 4 μg/mL

T1 sequence (P50579 whole entry): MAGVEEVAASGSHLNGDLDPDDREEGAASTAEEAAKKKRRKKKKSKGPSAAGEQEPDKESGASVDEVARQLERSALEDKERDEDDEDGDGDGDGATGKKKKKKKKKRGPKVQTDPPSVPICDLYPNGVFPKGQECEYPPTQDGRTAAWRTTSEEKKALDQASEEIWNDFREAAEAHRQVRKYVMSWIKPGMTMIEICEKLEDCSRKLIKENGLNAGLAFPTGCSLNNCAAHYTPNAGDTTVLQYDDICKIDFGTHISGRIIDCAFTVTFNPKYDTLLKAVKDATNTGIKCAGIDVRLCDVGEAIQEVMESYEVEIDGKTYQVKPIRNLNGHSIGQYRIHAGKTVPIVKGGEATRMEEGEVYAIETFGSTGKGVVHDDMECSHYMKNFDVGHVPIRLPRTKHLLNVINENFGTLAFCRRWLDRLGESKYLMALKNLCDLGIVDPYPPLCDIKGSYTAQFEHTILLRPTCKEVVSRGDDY

Row | SMILES | IC50 [1] [nM] | IC50 (recombinant MetAP2 4 μg/mL) [nM]
1 | C[C@H](NC(=O)C(O)[C@H](N)CC1CCCCC1)C(=O)NCc1nc2ccccc2[nH]1 (stereo partly drawn) [Example 67, ((2RS,3R)-3-amino-2-hydroxy-4-cyclohexyl)butanoyl-L-alanyl-(2-benzimidazolemethyl)amide hydrochloride] | 13000 | –
2 | N[C@H](CC1CCCCC1)C(O)C(=O)NCc1ccc(Cl)cc1Cl (stereo partly drawn) [Example 97, (2RS,3R)-3-Amino-4-cyclohexyl)-N-(2,4-dichlorobenzyl)-2-hydroxybutanamide Hydrochloride] | 3000 | –
3 | CCOC(=O)C1CCN(C(=O)[C@H](C)NC(=O)C(O)[C@H](N)CC2CCCCC2)CC1 (stereo partly drawn) [Example 63, ((2RS,3R)-3-amino-2-hydroxy-4-cyclohexyl)butanoyl-L-alanyl-(ethylisonipecotate)amide hydrochloride] | 20000 | –
4 | C[C@H](NC(=O)C(O)[C@H](N)CC1CCCCC1)C(=O)OCc1ccccc1CS(=O)(=O)c1ccccc1 (stereo partly drawn) [Example 91, (2RS,3R)-3-Amino-2-hydroxy-4-cyclohexyl)butanoyl-L-alanine-2-((phenylsulfonyl)methyl)benzyl Ester Hydrochloride] | 2300 | –
5 | CSCC[C@@H](N)C(O)C(=O)NCCc1ccc(Oc2ccccc2)cc1 (mixture of isomers) [Example 11, (2RS,3R)-N-(2-(4-phenoxyphenyl)ethyl)-3-amino-2-hydroxy-5-(methylthio)pentanamide hydrochloride] | 2600 | –
6 | N[C@H](CC1CCCCC1)C(O)C(=O)NC12CC3CC(CC(C3)C1)C2 (mixture of isomers) [Example 202, (2RS,3R)-N-(1-adamantyl)-3-amino-4-cyclohexyl-2-hydroxybutanamide Hydrochloride] | 8300 | –
7 | N[C@H](CC1CCCCC1)C(O)C(=O)Nc1cccc(OCc2ccccc2)c1 (mixture of isomers) [Example 223, (2RS,3R)-3-amino-N-(3-(benzyloxy)phenyl)-4-cyclohexyl-2-hydroxybutanamide Hydrochloride] | 880 | –
8 | C[C@H](NC(=O)C(O)[C@H](N)CC1CCCCC1)c1nc(C(=O)O)cs1 (stereo partly drawn) [Example 75, (2RS,3R)-3-amino-2-hydroxy-4-cyclohexyl)butanoyl-(4-carboxyl-2-(1'amino)ethyl thizole hydrochloride] | 9400 | –
9 | C[C@H](NC(=O)C(O)[C@H](N)CC1CCCCC1)C(=O)NCCNc1ccc([N+](=O)[O-])cn1 (stereo partly drawn) [Example 62, ((2RS,3R)-3-amino-2-hydroxy-4-cyclohexyl)butanoyl-L-alanyl-(5-nitropyridylaminoethyl)amide dihydrochloride] | 7600 | –
10 | CCOC(=O)CCNC(=O)C(O)[C@H](N)Cc1ccccc1 (mixture of isomers) [Example 20, (2RS,3R)-N-(2-(carboethoxy)ethyl)-3-amino-2-hydroxy-4-phenyl-butanamide hydrochloride] | 5800 | –
11 | COc1ccc2[nH]cc(CCNC(=O)[C@H](C)NC(=O)C(O)[C@H](N)CC3CCCCC3)c2c1 (stereo partly drawn) [Example 65, ((2RS,3R)-3-amiono-2-hydroxy-4-cyclohexyl)butanoyl-L-alanyl-(5-methoxytryptamine)amide hydrochloride] | – | 5600
12 | N[C@H](CC1CCCCC1)C(O)C(=O)NCCc1cccc(C(F)(F)F)c1 (mixture of isomers) [Example 200, (2RS,3R)-3-amino-4-cyclohexyl-2-hydroxy-N-(3-(trifluoromethyl)phenethyl)butanamide Hydrochloride] | 1500 | –
13 | N[C@H](CC1CCCCC1)C(O)C(=O)NC1CCCCC1 (mixture of isomers) [Example 206, (2RS,3R)-3-amino-N,4-dicyclohexyl-2-hydroxybutanamide Hydrochloride] | 10000 | –
14 | N[C@H](CC1CCCCC1)C(O)C(=O)Nc1cccc(C(F)(F)F)c1 (mixture of isomers) [Example 151, (2RS,3R)-3-amino-4-cyclohexyl-2-hydroxy-N-(3-(trifluoromethyl)phenyl)butanamide] | 430 | –
15 | C[C@H](NC(=O)C(O)[C@H](N)CC1CCCCC1)C(=O)OC1CCCCC1 (stereo partly drawn) [Example 90, (2RS,3R)-3-Amino-2-hydroxy-4-cyclohexyl)butanoyl-L-alanine Cyclohexyl Ester Hydrochloride] | 2300 | –
16 | N[C@H](CC1CCCCC1)C(O)C(=O)Nc1ccc(C(F)(F)F)cc1 (mixture of isomers) [Example 152, (2RS,3R)-3-amino-4-cyclohexyl-2-hydroxy-N-(4-(trifluoromethyl)phenyl)butanamide] | 2400 | –
17 | Cc1cc(I)ccc1NC(=O)C(O)[C@H](N)CC1CCCCC1 (mixture of isomers) [Example 173, (2RS,3R)-3-amino-4-cyclohexyl-2hydroxy-N-(4-iodo-2-methylphenyl)butanamide hydrochloride] | 580 | –
18 | CSCC[C@@H](N)C(O)C(=O)NCCCc1ccccc1 (stereo partly drawn) [Example 6, (2RS,3R)-N-((3-phenylpropyl)-3-amino-2-hydroxy-5-(methylthio)pentanamide hydrochloride] | 3000 | –
19 | COc1cc(CCNC(=O)[C@H](C)NC(=O)C(O)[C@H](N)CC2CCCCC2)ccc1O (stereo partly drawn) [Example 66, ((2RS,3R)-3-amino-2-hydroxy-4-cyclohexyl)butanoyl-L-alanyl-(3-O-methoxydopamine)amide hydrochloride] | 10000 | –

Row | SMILES | IC50 [1] [nM] | IC50 (recombinant MetAP2 4 μg/mL) [nM]
20 | Cc1ccc(NC(=O)C(O)[C@H](N)CC2CCCCC2)cc1 (mixture of isomers) [Example 143, (2RS,3R)-3-amino-4-cyclohexyl-2-hydroxy-N-(4-methylphenyl)butanamide] | 870 | –
21 | N[C@H](CC1CCCCC1)C(O)C(=O)NC1CCC1 (mixture of isomers) [Example 208, (2RS,3R)-3-amino-N-cyclobutyl-4-cyclohexyl-2-hydroxybutanamide Hydrochloride] | 2700 | –
22 | N[C@H](CC1CCCCC1)C(O)C(=O)N[C@@H](CO)C(=O)OCc1ccc([N+](=O)[O-])cc1 (stereo partly drawn) [Example 138, 4-nitrobenzyl (2RS,3R,2'S)-2-((3-amino-4-cyclohexyl-2-hydroxybutanoyl)amino-3-hydroxypropanoate trifluoroacetate] | 1600 | –
23 | N[C@H](CC1CCCCC1)C(O)C(=O)Nc1ccc(Cl)c(Cl)c1 (mixture of isomers) [Example 153, (2RS,3R)-3-amino-4-cyclohexyl-N-(3,4-dichlorophenyl)-2-hydroxybutanamide] | 370 | –
24 | N[C@H](CC1CCCCC1)C(O)C(=O)NCCc1cccc(F)c1 (mixture of isomers) [Example 166, (2RS,3R)-3-amino-4-cyclohexyl-N-(3-fluorophenethyl)-2-hydroxybutanamide hydrochloride] | 590 | –
25 | N[C@H](CC1CCCCC1)C(O)C(=O)Nc1ccccc1 (mixture of isomers) [Example 107, (2RS,3R)-3-Amino-4-cyclohexyl-2-hydroxy-N-phenylbutanamide Hydrochloride] | 1200 | –
26 | Cc1ncc([N+](=O)[O-])n1CCNC(=O)[C@H](C)NC(=O)C(O)[C@H](N)CC1CCCCC1 (stereo partly drawn) [Example 61, ((2RS,3R)-3-amino-2-hydroxy-4-cyclohexyl)butanoyl-L-alanyl-(2-methyl-5-nitroimidazolyl-ethyl)amide hydrochloride] | 13000 | –
27 | COc1cc(NC(=O)C(O)[C@H](N)CC2CCCCC2)cc(OC)c1 (mixture of isomers) [Example 161, (2RS,3R)-3-amino-4-cyclohexyl-N-(3,5-dimethoxyphenyl)-2-hydroxybutanamide hydrochloride] | 620 | –
28 | CCSCC[C@@H](NC(=O)CO)C(O)C(=O)NCCCCc1ccccc1 (stereo partly shown) [Example 40, hydrochloride] | 81000 | –
29 | C[C@H](NC(=O)C(O)[C@H](N)CC1CCCCC1)C(=O)Nc1cc([N+](=O)[O-])ccc1O (stereo partly drawn) [Example 69, ((2RS,3R)-3-amino-2-hydroxy-4-cyclohexyl)butanoyl-L-alanyl-(2-hydroxy-5-nitrophen-1-yl)amide hydrochloride] | 5300 | –
30 | N[C@H](CC1CCCCC1)C(O)C(=O)NCc1ccc(Br)cc1 (mixture of isomers) [Example 190, (2RS,3R)-3-amino-N-(4-bromobenzyl)-4-cyclohexyl-2-hydroxybutanamide hydrochloride] | 1300 | –
31 | CC(C)(C)OC(=O)CNC(=O)C(O)[C@H](N)CC1CCCCC1 (mixture of isomers) [Example 126, tert-butyl (2RS,3R)-2-((3-amino-4-cyclohexyl-2-hydroxybutanoyl)amino)acetate hydrochloride] | 13000 | –
32 | C[C@H](NC(=O)C(O)[C@H](N)CC1CCCCC1)C(=O)OCc1ccc(C(C)(C)C)cc1 (stereo partly drawn) [Example 93, (2RS,3R)-3-Amino-2-hydroxy-4-cyclohexyl)butanoyl-L-alanine 4-tert-butylbenzyl Ester Hydrochloride] | 5400 | –
33 | N[C@H](CC1CCCCC1)C(O)C(=O)Nc1cccc(Cl)c1 (mixture of isomers) [Example 148, (2RS,3R)-3-amino-N-(3-chlorophenyl)-4-cyclohexyl-2-hydroxybutanamide] | 520 | –
34 | N[C@H](CC1CCCCC1)C(O)C(=O)Nc1ccc(Oc2ccccc2)cc1 (mixture of isomers) [Example 185, (2RS,3R)-3-amino-4-cyclohexyl-2-hydroxy-N-(4-phenoxyphenyl)butanamide hydrochloride] | 1800 | –
35 | CCOC(=O)[C@H](C)NC(=O)C(O)[C@H](N)Cc1ccccc1 (stereo partly drawn) [Example 26, (2RS,3R,1'S)-N-((1-ethoxycarbonyl)ethyl)-3-amino-2-hydroxy-4-phenyl-butanamide hydrochloride] | 4700 | –
36 | CCSCC[C@@H](N)C(O)C(=O)NCCC(=O)OCc1ccccc1 (stereo partly drawn) [Example 15, (2RS,3R)-N-(3-(carbobenzyloxy)ethyl)-3-amino-2-hydroxy-5-(ethylthio)pentanamide hydrochloride] | 720 | –
37 | N[C@H](CC1CCCCC1)C(O)C(=O)NC1CCCc2ccccc21 (mixture of isomers) [Example 110, (2RS,3R)-3-Amino-4-cyclohexyl-2-hydroxy-N-(1,2,3,4-tetrahydro-1-naphthalenyl)butanamide Hydrochloride] | – | 1000
